Test results published in patent publication US7138361B2, “Herbicidal heterocycles” (E. I. du Pont de Nemours and Company, priority 2000, dated 2006).

Columns and labels:
Format in all cases: in vivo
wild oat (Avena fatua) = assay: Test B postemergence; conditions: 13 to 15 days
Method in brief: (§1)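 Ratings on a 0 to 100 visual scale (100 complete control) compare treated plants with controls 13 to 15 days after application. Treatments were pre- or postemergence sprays of compound in non-phytotoxic solvent with surfactant.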

[1] = test system: cocklebur (Xanthium strumarium); assay: Test B postemergence; conditions: 13 to 15 days
Method in brief: as §1

[2] = test system: morning glory (Ipomoea hederacea); assay: Test B postemergence; conditions: 13 to 15 days
Method in brief: as §1

[3] = test system: Surinam grass (Brachiaria decumbens); assay: Test B postemergence; conditions: 13 to 15 days
Method in brief: as §1

[4] = test system: giant foxtail (Setaria faberii); assay: Test B postemergence; conditions: 13 to 15 days
Method in brief: as §1

corn (Zea mays) [5] = assay: Test B postemergence; conditions: 13 to 15 days
Method in brief: as §1

[6] = test system: crabgrass (Digitaria sanguinalis); assay: Test B postemergence; conditions: 13 to 15 days
Method in brief: as §1

[7] = test system: lambsquarters (Chenopodium album); assay: Test B postemergence; conditions: 13 to 15 days
Method in brief: as §1

[8] = test system: blackgrass (Alopecurus myosuroides); assay: Test B postemergence; conditions: 13 to 15 days
Method in brief: as §1

[9] = test system: barnyardgrass (Echinochloa crus-galli); assay: Test B postemergence; conditions: 13 to 15 days
Method in brief: as §1

[10] = test system: wheat (Triticum aestivum); assay: Test B postemergence; conditions: 13 to 15 days
Method in brief: as §1

[11] = test system: velvetleaf (Abutilon theophrasti); assay: Test B postemergence; conditions: 13 to 15 days
Method in brief: as §1

[12] = test system: pigweed (Amaranthus retroflexus); assay: Test B postemergence; conditions: 13 to 15 days
Method in brief: as §1

[13] = test system: giant foxtail (Setaria faberii); assay: Test C preemergence; conditions: for Plant response rating, Foxtail, Giant: scale 0 to 100, 0 no effect, 100 complete control; for Plant response rating (0 to 100), Foxtail, Giant: preemergence, visual evaluation after 12 to 14 days
Method in brief: (§2)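 Formulation: non-phytotoxic solvent mix incl. surfactant. Pre: applied right after planting. Post: 1–4-leaf seedlings. Read: visual 0–100, day 12–14, greenhouse.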

corn (Zea mays) [14] = assay: Test C preemergence; conditions: for Plant response rating, Corn: scale 0 to 100, 0 no effect, 100 complete control; for Plant response rating (0 to 100), Corn: preemergence, visual evaluation after 12 to 14 days
Method in brief: as §2

[15] = test system: johnsongrass (Sorghum halepense); assay: Test C preemergence; conditions: for Plant response rating, Johnsongrass: scale 0 to 100, 0 no effect, 100 complete control; for Plant response rating (0 to 100), Johnsongrass: preemergence, visual evaluation after 12 to 14 days
Method in brief: as §2

kochia (Kochia scoparia) = assay: Test C preemergence; conditions: for Plant response rating, Kochia: scale 0 to 100, 0 no effect, 100 complete control
Method in brief: as §2

[16] = test system: bermudagrass (Cynodon dactylon); assay: Test C preemergence; conditions: for Plant response rating, Bermudagrass: scale 0 to 100, 0 no effect, 100 complete control; for Plant response rating (0 to 100 where 0 is no effect and 100 is complete control), Bermudagrass: preemergence, visual evaluation after 12 to 14 days
Method in brief: as §2

[17] = test system: morningglory (Ipomoea hederacea); assay: Test C preemergence; conditions: for Plant response rating, Morningglory: scale 0 to 100, 0 no effect, 100 complete control
Method in brief: as §2

Sunflower [18] = assay: Test C preemergence; conditions: Rate 125 g/ha; scale 0 to 100, 0 no effect, 100 complete control
[19] = test system: yellow nutsedge (Cyperus esculentus); assay: Test C preemergence; conditions: for Plant response rating, Nutsedge: scale 0 to 100, 0 no effect, 100 complete control
Method in brief: as §2

[20] = test system: velvetleaf (Abutilon theophrasti); assay: Test C preemergence; conditions: for Plant response rating, Velvetleaf: scale 0 to 100, 0 no effect, 100 complete control
Method in brief: as §2

Sunflower [21] = assay: Test C preemergence; conditions: Rate 500 g/ha, visual evaluation after 12 to 14 days
[22] = Rate 125 g/ha, scale 0 (no effect) to 100 (complete control)
[23] = Rate 500 g/ha, scale 0 to 100, 0 is no effect, 100 is complete control
[24] = preemergence, Rate 500 g/ha, visual evaluation after 12 to 14 days

CC(C)(C)c1ccn(C2CCN(c3ccc(F)c(Br)c3)C2=O)n1 (stereo not shown) [Compound 75]
Plant response rating, Wild Oat (wild oat (Avena fatua); [22]): 0 | Plant response rating, Wild Oat (wild oat (Avena fatua); [23]): 0 | Plant response rating, Cocklebur [1, 22]: 0 | Plant response rating, Cocklebur [1, 23]: 0 | Plant response rating, Morningglory [2, 22]: 20 | Plant response rating, Morningglory [2, 23]: 60 | Plant response rating, Surinam grass [3, 22]: 0 | Plant response rating, Surinam grass [3, 23]: 0 | Plant response rating, Foxtail, Giant [4, 22]: 0 | Plant response rating, Foxtail, Giant [4, 23]: 0 | Plant response rating, Corn (corn (Zea mays) [5]; [22]): 0 | Plant response rating, Corn (corn (Zea mays) [5]; [23]): 0 | Plant response rating, Crabgrass [6, 22]: 0 | Plant response rating, Crabgrass [6, 23]: 0 | Plant response rating, Lambsquarters [7, 22]: 70 | Plant response rating, Lambsquarters [7, 23]: 80 | Plant response rating, Blackgrass [8, 22]: 0 | Plant response rating, Blackgrass [8, 23]: 0 | Plant response rating, Barnyardgrass [9, 22]: 0 | Plant response rating, Barnyardgrass [9, 23]: 0 | Plant response rating, Wheat [10, 22]: 0 | Plant response rating, Wheat [10, 23]: 0 | Plant response rating, Velvetleaf [11, 22]: 0 | Plant response rating, Velvetleaf [11, 23]: 50 | Plant response rating, Pigweed [12, 22]: 50 | Plant response rating, Pigweed [12, 23]: 90 | Plant response rating, Foxtail, Giant ([13]; Rate 62 g/ha): 90 | Plant response rating, Foxtail, Giant ([13]; Rate 125 g/ha): 100 | Plant response rating (0 to 100), Foxtail, Giant ([13]; Rate 250 g/ha): 70 | Plant response rating (0 to 100), Foxtail, Giant ([13]; Rate 500 g/ha): 100 | Plant response rating, Corn (corn (Zea mays) [14]; Rate 62 g/ha): 0 | Plant response rating, Corn (corn (Zea mays) [14]; Rate 125 g/ha): 0 | Plant response rating (0 to 100), Corn (corn (Zea mays) [14]; Rate 250 g/ha): 0 | Plant response rating (0 to 100), Corn (corn (Zea mays) [14]; Rate 500 g/ha): 0 | Plant response rating, Johnsongrass ([15]; Rate 62 g/ha): 0 | Plant response rating, Johnsongrass ([15]; Rate 125 g/ha): 0 | Plant response rating (0 to 100), Johnsongrass ([15]; Rate 250 g/ha): 30 | Plant response rating (0 to 100), Johnsongrass ([15]; Rate 500 g/ha): 30 | Plant response rating, Kochia (kochia (Kochia scoparia); Rate 62 g/ha): 100 | Plant response rating, Kochia (kochia (Kochia scoparia); Rate 125 g/ha): 100 | Plant response rating (0 to 100), Kochia (kochia (Kochia scoparia); preemergence, Rate 250 g/ha, visual evaluation after 12 to 14 days): 100 | Plant response rating, Bermudagrass ([16]; Rate 62 g/ha): 100 | Plant response rating, Bermudagrass ([16]; Rate 125 g/ha): 100 | Plant response rating (0 to 100 where 0 is no effect and 100 is complete control), Bermudagrass ([16]; Rate 250 g/ha): 100 | Plant response rating (0 to 100 where 0 is no effect and 100 is complete control), Bermudagrass ([16]; Rate 500 g/ha): 100 | Plant response rating, Morningglory ([17]; Rate 62 g/ha): 0 | Plant response rating, Morningglory ([17]; Rate 125 g/ha): 0 | Plant response rating (0 to 100), Morningglory [17, 24]: 0 | Plant response rating, Morningglory ([17]; preemergence, Rate 250 g/ha): 0 | Plant response rating, Sunflower (Sunflower [18]): 0 | Plant response rating, Nutsedge ([19]; Rate 62 g/ha): 0 | Plant response rating, Nutsedge ([19]; Rate 125 g/ha): 0 | Plant response rating (0 to 100), Nutsedge [19, 24]: 50 | Plant response rating, Nutsedge ([19]; preemergence, Rate 250 g/ha): 50 | Plant response rating, Velvetleaf ([20]; Rate 125 g/ha): 0 | Plant response rating (0 to 100), Velvetleaf [20, 24]: 0 | Plant response rating, Velvetleaf ([20]; preemergence, Rate 250 g/ha): 0 | Plant response rating (0 to 100), Sunflower (Sunflower [21]): 50
